Earlier results, collected in patent publication US20150306063A1, “COMPOSITION AND METHOD FOR VAGINAL THERAPY” (priority 2014, published 2015).

Settings: elderly patients, including patients older than 65 years of age

- half-life in the elderly as compared with a younger population: only slightly prolonged
Structure (SMILES): COc1ccccc1OCC(O)COC(N)=O (stereo not shown) [Methocarbamol, 3-(2-methoxyphenoxy)-1,2-propanediol 1-carbamate]
